Measured values as given in publication PMC5852267, “Influence of quaternary cation compound on the size of the Escherichia coli small multidrug resistance protein, EmrE” (Biochemistry and Biophysics Reports, 2018).

target: T1, EmrE (EmrE-Myc-His6; His6-myc-EmrE) (Escherichia coli, UniProt P23895); experiment: biochemical; type: binding; details: not given
T1 construct: plasmid pTZEmrEmH6; E. coli C43(DE3); dimer considered minimal functional unit
T1 sequence (P23895 whole entry): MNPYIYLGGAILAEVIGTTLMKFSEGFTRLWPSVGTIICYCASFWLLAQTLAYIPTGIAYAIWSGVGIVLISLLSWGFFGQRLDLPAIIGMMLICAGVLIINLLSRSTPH

Compared with `CCN=c1cc2oc3cc(NCC)c(C)cc3c(-c3ccccc3C(=O)OCC)c-2cc1C` [RH, Rhodamine 6 G], `CC[n+]1c(-c2ccccc2)c2cc(N)ccc2c2ccc(N)cc21` [EB, Ethidium bromide] is 12-fold lower in Kd: 12 ± 1.4 µM for the first, 1 ± 0.3 µM for the second.

`Nc1ccc2cc3ccc(N)cc3nc2c1` [PRO, Proflavine] and `Cc1cc(N)c2ccccc2[n+]1CCCCCCCCCC[n+]1c(C)cc(N)c2ccccc21` [DC, Dequalinium chloride] are within error of each other in Kd: 14 ± 5 µM for the first, 11 ± 2.2 µM for the second.

`CN(C)c1ccc(C(=C2C=CC(=[N+](C)C)C=C2)c2ccc(N(C)C)cc2)cc1` [CV, Crystal Violet] showed a Kd of 16 ± 5.7 µM.

same assay, conditions: read-out: Kd

Going from `C[n+]1ccc(-c2cc[n+](C)cc2)cc1` [MV, Methyl Viologen] to `c1ccc([P+](c2ccccc2)(c2ccccc2)c2ccccc2)cc1` [TPP, Tetraphenylphosphonium chloride], the Kd falls from 179 ± 19.9 µM to 5 ± 3.7 µM (36-fold). The second binds more tightly here.

For `CCCCCCCCCCCCCCCC[N+](C)(C)Cc1ccccc1` [CTC, Cetalkonium chloride (Banjela) (16 Chain)], the Kd was 407 ± 133 µM.
